Test results published in PubChem BioAssay AID248 (DTP/NCI, 2004).
Where “and” joins values, the source holds several entries; their conditions need not be identical. Identical values can stand only once. Inconclusive results and toxic doses are left out. Rule as the data show it: active = T/C of 150% or more; inactive = T/C below 125%.

Test system: L1210 leukemia ip in BDF1 mice, survival T/C
Assay: NCI In Vivo Anticancer Drug Screen. Data for tumor model L1210 Leukemia (intraperitoneal) in B6D2F1 (BDF1) mice
Conditions: endpoint: mean survival time, higher = longer survival
How it was run: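 Transplantable tumor model; survival measured in treated vs vehicle control mice. Value = treated/control.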

[1] = dose: 12.5 mg/kg/injection, schedule: Q01DX009 (ip), vehicle: saline
[2] = dose: 25.0 mg/kg/injection, schedule: Q01DX009 (ip), vehicle: saline
[3] = dose: 50.0 mg/kg/injection, schedule: Q01DX009 (ip), vehicle: saline
[4] = dose: 100.0 mg/kg/injection, schedule: Q01DX001 (ip), vehicle: saline
[5] = dose: 200.0 mg/kg/injection, schedule: Q01DX001 (ip), vehicle: saline
[6] = dose: 100.0 mg/kg/injection, schedule: Q04DX003 (ip), vehicle: saline with Tween-80
[7] = dose: 200.0 mg/kg/injection, schedule: Q04DX003 (ip), vehicle: saline with Tween-80
[8] = dose: 400.0 mg/kg/injection, schedule: Q04DX003 (ip), vehicle: saline with Tween-80
[9] = dose: 100.0 mg/kg/injection, schedule: Q01DX009 (ip), vehicle: saline with Tween-80
[10] = dose: 200.0 mg/kg/injection, schedule: Q01DX009 (ip), vehicle: saline with Tween-80
[11] = dose: 400.0 mg/kg/injection, schedule: Q01DX009 (ip), vehicle: saline with Tween-80

Measured: T/C

CCOc1ccc(/C=C/C(=O)c2ccc(C)cc2)cc1OCC
inactive: dose: 75.0 mg/kg/injection, schedule: Q04DX003 (ip), vehicle: saline 100 % of control | dose: 150.0 mg/kg/injection, schedule: Q04DX003 (ip), vehicle: saline 102 % of control | dose: 300.0 mg/kg/injection, schedule: Q04DX003 (ip), vehicle: saline 105 % of control

CC(=O)OC1C2OC3C=C(C)CCC3(CO)C(C)(C1OC(C)=O)C21CO1 (centres undefined)
inactive: dose: 0.8 mg/kg/injection, schedule: Q01DX009 (ip), vehicle: other 107 % of control | dose: 1.6 mg/kg/injection, schedule: Q01DX009 (ip), vehicle: other 111 % of control | dose: 6.4 mg/kg/injection, schedule: Q01DX009 (ip), vehicle: other 95 % of control

O=C1/C(=C\c2ccccc2)Oc2cc(O)c(O)cc21
inactive: dose: 100.0 mg/kg/injection, schedule: Q01DX001 (ip), vehicle: saline with Tween-80 98 % of control

CN(Cc1ccccc1)C(=O)Nc1ccc(Cl)c(Cl)c1
inactive: dose: 100.0 mg/kg/injection, schedule: Q01DX009 (ip), vehicle: Klucel (hydroxypropylcellulose) (HPC) 97 % of control | dose: 200.0 mg/kg/injection, schedule: Q01DX009 (ip), vehicle: Klucel (hydroxypropylcellulose) (HPC) 110 % of control | dose: 400.0 mg/kg/injection, schedule: Q01DX009 (ip), vehicle: Klucel (hydroxypropylcellulose) (HPC) 101 % of control

C[C@@H]1CN1C1=CC(=O)C(N2C[C@H]2C)=CC1=O
inactive: dose: 6.25 mg/kg/injection, schedule: Q04DX003 (ip), vehicle: saline with Tween-80 117 % of control | dose: 12.5 mg/kg/injection, schedule: Q04DX003 (ip), vehicle: saline with Tween-80 117 % of control

Nc1ccc2cc(S(=O)(=O)O)cc(S(=O)(=O)O)c2c1
inactive: dose: 100.0 mg/kg/injection, schedule: Q04DX002 (ip), vehicle: saline 95 % of control | dose: 200.0 mg/kg/injection, schedule: Q04DX002 (ip), vehicle: saline 102 % of control

CCC(C)N(CCCOC(=O)c1ccc(N)cc1)C(C)CC (centres undefined)
inactive: [1] 106 % of control | [2] 104 % of control | [3] 97 % of control

C=C1C(=O)N(C)CCC1C(CC)C(=O)OC (centres undefined)
inactive: dose: 25.0 mg/kg/injection, schedule: Q01DX001 (ip), vehicle: saline 101 % of control | dose: 25.0 mg/kg/injection, schedule: Q04DX003 (ip), vehicle: saline 95 % of control | dose: 25.0 mg/kg/injection, schedule: Q04DX003 (oral), vehicle: saline 107 % of control | dose: 50.0 mg/kg/injection, schedule: Q01DX001 (ip), vehicle: saline 88 % of control | dose: 50.0 mg/kg/injection, schedule: Q04DX003 (ip), vehicle: saline 93 % of control | dose: 50.0 mg/kg/injection, schedule: Q04DX003 (oral), vehicle: saline 109 % of control | [4] 98 % of control | dose: 100.0 mg/kg/injection, schedule: Q04DX003 (ip), vehicle: saline 93 % of control | dose: 100.0 mg/kg/injection, schedule: Q04DX003 (oral), vehicle: saline 98 % of control | [5] 93 % of control | dose: 200.0 mg/kg/injection, schedule: Q04DX003 (ip), vehicle: saline 95 % of control | dose: 200.0 mg/kg/injection, schedule: Q04DX003 (oral), vehicle: saline 94 % of control

O=C(O)COc1ccc(Cl)cc1Cl
inactive: dose: 100.0 mg/kg/injection, schedule: Q01DX009 (ip), vehicle: saline 100 % of control | dose: 200.0 mg/kg/injection, schedule: Q01DX009 (ip), vehicle: saline 100 % of control

CNC(=O)C1C2C=CC(C2)C1C(=O)NC (centres undefined)
inactive: [6] 93 % of control and 100 % of control and 87 % of control | [7] 96 % of control and 100 % of control and 106 % of control | [8] 93 % of control and 100 % of control (2×)

Cc1c(C)c2ccccc2[nH]c1=O
inactive: dose: 100.0 mg/kg/injection, schedule: Q01DX001 (ip), vehicle: carboxymethylcellulose (CMC) 88 % of control | [4] 100 % of control | dose: 200.0 mg/kg/injection, schedule: Q01DX001 (ip), vehicle: carboxymethylcellulose (CMC) 88 % of control | [5] 95 % of control | dose: 400.0 mg/kg/injection, schedule: Q01DX001 (ip), vehicle: carboxymethylcellulose (CMC) 96 % of control | dose: 400.0 mg/kg/injection, schedule: Q01DX001 (ip), vehicle: saline 95 % of control

CCC1(CC)COC(C)(C(=O)O)OC1
inactive: [9] 96 % of control and 95 % of control | [10] 89 % of control and 101 % of control | [11] 90 % of control

N#CC12OC1(C#N)C(=O)C1(Cl)C3C=CC(C3)C1(Cl)C2=O (centres undefined)
inactive: [1] 102 % of control | [2] 102 % of control | [3] 96 % of control and 106 % of control

NC(=S)N/N=C\C(c1ccccc1)c1ccccc1
inactive: [9] 98 % of control | [6] 96 % of control | [10] 94 % of control | [7] 95 % of control | [11] 96 % of control | [8] 104 % of control

Cc1c2ccccc2c(C)c2c1cc(C(=O)O)c1ccccc12
inactive: dose: 200.0 mg/kg/injection, schedule: Q04DX002 (ip), vehicle: Klucel (hydroxypropylcellulose) (HPC) 115 % of control | dose: 400.0 mg/kg/injection, schedule: Q04DX002 (ip), vehicle: Klucel (hydroxypropylcellulose) (HPC) 101 % of control

O=C(O)CCN1C(=O)c2ccccc2C1=O
inactive: [9] 96 % of control | [10] 95 % of control | [11] 102 % of control

CC(=O)Oc1cc2c3c(c1)CCCN3CCC2
inactive: dose: 1.25 mg/kg/injection, schedule: Q01DX009 (ip), vehicle: saline 101 % of control | dose: 2.5 mg/kg/injection, schedule: Q01DX009 (ip), vehicle: saline 106 % of control | dose: 5.0 mg/kg/injection, schedule: Q01DX009 (ip), vehicle: saline 98 % of control

O=C(O)c1cc(Br)ccc1Br
inactive: dose: 100.0 mg/kg/injection, schedule: Q04DX002 (ip), vehicle: saline with Tween-80 102 % of control | dose: 200.0 mg/kg/injection, schedule: Q04DX002 (ip), vehicle: saline with Tween-80 110 % of control | dose: 400.0 mg/kg/injection, schedule: Q04DX002 (ip), vehicle: saline with Tween-80 105 % of control

CCOC(=O)C1=CN=NC1=[N+]=[N-]
inactive: dose: 10.0 mg/kg/injection, schedule: Q01DX001 (ip), vehicle: saline 96 % of control | dose: 20.0 mg/kg/injection, schedule: Q01DX001 (ip), vehicle: saline 102 % of control

CCOC(=O)Cc1c(C(=O)OCC)[nH]c(C)c1C(C)=O
inactive: dose: 100.0 mg/kg/injection, schedule: Q01DX001 (ip), vehicle: Klucel (hydroxypropylcellulose) (HPC) 104 % of control | dose: 200.0 mg/kg/injection, schedule: Q01DX001 (ip), vehicle: Klucel (hydroxypropylcellulose) (HPC) 95 % of control | dose: 400.0 mg/kg/injection, schedule: Q01DX001 (ip), vehicle: Klucel (hydroxypropylcellulose) (HPC) 95 % of control

CC(CO)(NC(=O)OCc1ccccc1)C(=O)O (centres undefined)
inactive: dose: 100.0 mg/kg/injection, schedule: Q01DX009 (ip), vehicle: acetone 94 % of control | dose: 200.0 mg/kg/injection, schedule: Q01DX009 (ip), vehicle: acetone 92 % of control | dose: 400.0 mg/kg/injection, schedule: Q01DX009 (ip), vehicle: acetone 92 % of control

Cc1cc(-c2ccc(NC(=O)N(C)CCC#N)c(C)c2)ccc1NC(=O)N(C)CCC#N
inactive: dose: 100.0 mg/kg/injection, schedule: Q01DX009 (ip), vehicle: other 88 % of control | dose: 200.0 mg/kg/injection, schedule: Q01DX009 (ip), vehicle: other 97 % of control | dose: 400.0 mg/kg/injection, schedule: Q01DX009 (ip), vehicle: other 100 % of control
